Each structure is given as a SMILES string.

The target of the experiment is Phosphatidylinositol 4-kinase alpha (Bos taurus) (UniProt O02811). As to the kind of experiment: Inactivation of the enzyme PI4K230 from bovine brain membranes. On the set-up: concentration or dose not given beside the values.
Sequence of Phosphatidylinositol 4-kinase alpha (Bos taurus) (O02811 whole entry): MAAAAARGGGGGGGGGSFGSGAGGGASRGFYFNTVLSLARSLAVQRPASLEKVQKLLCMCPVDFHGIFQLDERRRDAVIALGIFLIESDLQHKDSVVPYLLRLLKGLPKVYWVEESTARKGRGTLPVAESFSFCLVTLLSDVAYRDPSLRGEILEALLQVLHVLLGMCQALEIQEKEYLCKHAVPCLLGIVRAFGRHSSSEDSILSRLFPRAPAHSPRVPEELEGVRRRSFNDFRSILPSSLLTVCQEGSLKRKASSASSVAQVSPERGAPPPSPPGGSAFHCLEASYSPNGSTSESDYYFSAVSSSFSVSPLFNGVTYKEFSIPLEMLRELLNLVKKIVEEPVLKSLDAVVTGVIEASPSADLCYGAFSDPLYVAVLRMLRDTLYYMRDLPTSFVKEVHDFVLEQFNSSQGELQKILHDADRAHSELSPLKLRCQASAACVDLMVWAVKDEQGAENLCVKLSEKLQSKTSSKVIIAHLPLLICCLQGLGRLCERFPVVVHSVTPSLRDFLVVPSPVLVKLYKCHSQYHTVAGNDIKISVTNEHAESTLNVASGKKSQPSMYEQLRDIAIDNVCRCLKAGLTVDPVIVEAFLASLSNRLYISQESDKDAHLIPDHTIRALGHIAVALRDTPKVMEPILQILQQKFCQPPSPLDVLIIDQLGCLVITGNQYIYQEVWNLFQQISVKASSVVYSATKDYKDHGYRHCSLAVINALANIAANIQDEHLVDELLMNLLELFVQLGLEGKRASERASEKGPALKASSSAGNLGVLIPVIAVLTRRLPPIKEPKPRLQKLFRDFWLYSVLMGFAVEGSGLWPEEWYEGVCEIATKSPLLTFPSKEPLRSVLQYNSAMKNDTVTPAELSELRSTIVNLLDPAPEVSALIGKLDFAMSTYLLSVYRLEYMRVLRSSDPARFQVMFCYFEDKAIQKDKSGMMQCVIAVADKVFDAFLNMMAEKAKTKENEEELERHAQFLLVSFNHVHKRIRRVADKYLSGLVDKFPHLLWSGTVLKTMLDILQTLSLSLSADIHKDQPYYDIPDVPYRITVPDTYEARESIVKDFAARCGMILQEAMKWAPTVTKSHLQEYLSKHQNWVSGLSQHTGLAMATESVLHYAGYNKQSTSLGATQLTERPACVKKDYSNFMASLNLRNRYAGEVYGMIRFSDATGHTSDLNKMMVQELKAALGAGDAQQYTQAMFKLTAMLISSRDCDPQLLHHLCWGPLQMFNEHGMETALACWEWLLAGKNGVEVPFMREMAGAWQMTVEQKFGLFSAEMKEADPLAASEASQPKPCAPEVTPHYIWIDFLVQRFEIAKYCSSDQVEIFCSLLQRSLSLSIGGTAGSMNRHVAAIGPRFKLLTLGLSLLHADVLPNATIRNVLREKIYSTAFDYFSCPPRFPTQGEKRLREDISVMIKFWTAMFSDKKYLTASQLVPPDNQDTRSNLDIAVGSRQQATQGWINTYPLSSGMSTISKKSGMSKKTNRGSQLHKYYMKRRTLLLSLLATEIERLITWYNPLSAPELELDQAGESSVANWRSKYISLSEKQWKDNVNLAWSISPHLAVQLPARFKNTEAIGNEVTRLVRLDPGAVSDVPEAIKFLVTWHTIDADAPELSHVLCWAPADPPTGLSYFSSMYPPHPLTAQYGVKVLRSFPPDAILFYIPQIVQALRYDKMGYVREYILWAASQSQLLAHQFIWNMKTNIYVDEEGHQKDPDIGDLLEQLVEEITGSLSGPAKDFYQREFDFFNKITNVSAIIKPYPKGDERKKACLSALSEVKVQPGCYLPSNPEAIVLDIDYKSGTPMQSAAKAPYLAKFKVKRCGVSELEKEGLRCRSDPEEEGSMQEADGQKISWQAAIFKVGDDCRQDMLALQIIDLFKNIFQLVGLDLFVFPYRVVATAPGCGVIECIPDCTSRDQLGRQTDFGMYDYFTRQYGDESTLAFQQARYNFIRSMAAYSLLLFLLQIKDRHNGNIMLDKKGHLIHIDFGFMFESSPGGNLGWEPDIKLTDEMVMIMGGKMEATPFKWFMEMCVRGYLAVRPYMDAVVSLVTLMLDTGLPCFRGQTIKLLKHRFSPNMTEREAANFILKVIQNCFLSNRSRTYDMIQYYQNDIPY
Take `CC(=O)O[C@@H]1[C@@H](NC(=O)c2ccccc2)[C@@H](O)CC(=O)[C@H]1OC(C)=O`: the Remaining activity was found to be 56%.
As for `CC1(C)OC2CC(=O)C[C@@H](O)C2O1` (some centres undefined), the Remaining activity was found to be 80%.
For `[N-]=[N+]=N[C@@H]1C[C@@H](O)CC(=O)[C@H]1OC(=O)c1ccccc1`, the Remaining activity was 80%.
With `COC(=O)/C=C1\C[C@H](O)C[C@@H](N=[N+]=[N-])[C@@H]1OCc1ccccc1` the figure was 70%; with `COC(=O)/C=C1\C[C@H](O)C[C@@H](N=[N+]=[N-])[C@@H]1OC(=O)c1ccccc1`, 63%; with `COC(=O)/C=C1\C[C@H](O)C[C@@H](OC(=O)c2ccccc2)[C@@H]1OC(=O)c1ccccc1`, 64%.
On to `O=C(O[C@@H]1C(=O)C=CC[C@H]1OC(=O)c1ccccc1)c1ccccc1`, for which the Remaining activity is 8%.
With `[N-]=[N+]=N[C@@H]1CC=CC(=O)[C@H]1OCc1ccccc1` the figure was 85%.
With `CC(=O)O[C@@H]1CC(=O)[C@@H](OC(=O)c2ccccc2)[C@H](OC(=O)c2ccccc2)C1` the figure was 20%.
Regarding `CC1(C)OC2C=CC(=O)CC2O1` (centres undefined), the Remaining activity was found to be 57%.
`[N-]=[N+]=N[C@@H]1C[C@@H](O)CC(=O)[C@H]1OCc1ccccc1` had a Remaining activity of 85%.
With `O=C1C[C@H](O)CC=C1OC(=O)c1ccccc1`, the Remaining activity came out at 51%.
As to `CC(=O)O[C@H]1CC(=O)[C@@H](OC(=O)c2ccccc2)[C@H](N=[N+]=[N-])C1`, the Remaining activity came to 10%.
Regarding `[N-]=[N+]=N[C@@H]1C[C@@H](O)C/C(=N\O)[C@H]1OC(=O)c1ccccc1`, the Remaining activity was determined as 66%.
For the compound `[N-]=[N+]=N[C@@H]1C[C@@H](O)CC2(SCCS2)[C@H]1OC(=O)c1ccccc1`, the Remaining activity was determined as 96%.
For the compound `CC(=O)O[C@@H]1C[C@@H](N=[N+]=[N-])[C@H](OC(=O)c2ccccc2)C2(C1)SCCS2`, the Remaining activity was determined as 96%.
As for `O=C(O[C@@H]1C(=O)C[C@H](O)C[C@H]1OC(=O)c1ccccc1)c1ccccc1`, the figure is 84%; as for `CC(=O)O[C@@H]1CC(=O)[C@@H](OCc2ccccc2)[C@H](N=[N+]=[N-])C1`, 82%; as for `[N-]=[N+]=N[C@@H]1CC=CC(=O)[C@H]1OC(=O)c1ccccc1`, 5%.
